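In this assay, cells in 96-well plates receive the compound at five concentrations for 48 hours. Endpoints are linearly interpolated between the surrounding concentrations. At the GI50, growth is halved. TGI denotes the concentration required for complete inhibition of growth.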
Legend:
Test in all cases: inhibition of tumour cell growth, NCI panel, 48 h
HOP-92 NSCLC = system: HOP-92 NSCLC
SR leukemia = system: SR leukemia
UO-31 renal = system: UO-31 renal
RPMI-8226 leukemia = system: RPMI-8226 leukemia
LOX IMVI melanoma = system: LOX IMVI melanoma
T-47D breast = system: T-47D breast
HCT-116 colon = system: HCT-116 colon
HCC-2998 colon = system: HCC-2998 colon
HL-60(TB) leukemia = system: HL-60(TB) leukemia
KM12 colon = system: KM12 colon

CCSC[C@@H]1C[C@](O)(c2ccc(Cl)cc2)[C@@H](c2ccc(Cl)cc2)O1
GI50 (HOP-92 NSCLC): 20.9 µM | TGI (HOP-92 NSCLC): 36.9 µM | GI50 (SR leukemia): 11.1 µM | TGI (SR leukemia): 28.2 µM | GI50 (UO-31 renal): 16.5 µM | TGI (UO-31 renal): 30.4 µM | GI50 (RPMI-8226 leukemia): 20.8 µM | TGI (RPMI-8226 leukemia): 51.2 µM | GI50 (LOX IMVI melanoma): 18.5 µM | TGI (LOX IMVI melanoma): 40.7 µM | GI50 (T-47D breast): 14.8 µM | TGI (T-47D breast): 38.6 µM | GI50 (HCT-116 colon): 12.6 µM | TGI (HCT-116 colon): 25.1 µM | GI50 (HCC-2998 colon): 20.3 µM | TGI (HCC-2998 colon): 39.3 µM | GI50 (HL-60(TB) leukemia): 15.2 µM | TGI (HL-60(TB) leukemia): 36 µM | GI50 (KM12 colon): 15.4 µM | TGI (KM12 colon): 30.9 µM

COc1ccc(Nc2nc(NCCNc3ccnc4cc(Cl)ccc34)nc(N3CCOCC3)n2)cc1
GI50 (HOP-92 NSCLC): 1.16 µM | TGI (HOP-92 NSCLC): 13 µM | GI50 (SR leukemia): 2.01 µM | TGI (SR leukemia): 7.36 µM | GI50 (UO-31 renal): 1.33 µM | TGI (UO-31 renal): 14.2 µM | GI50 (RPMI-8226 leukemia): 2.75 µM | TGI (RPMI-8226 leukemia): 13.1 µM | GI50 (LOX IMVI melanoma): 3.01 µM | TGI (LOX IMVI melanoma): 10.6 µM | GI50 (T-47D breast): 11.6 µM | TGI (T-47D breast): 28 µM | GI50 (HCT-116 colon): 3.01 µM | TGI (HCT-116 colon): 14.8 µM | GI50 (HCC-2998 colon): 2.08 µM | TGI (HCC-2998 colon): 3.88 µM | GI50 (HL-60(TB) leukemia): 1.13 µM | TGI (HL-60(TB) leukemia): 12.7 µM | GI50 (KM12 colon): 5.18 µM | TGI (KM12 colon): 18 µM

CCCc1nn(C)c2c(=O)[nH]c(-c3cc(S(=O)(=O)N4CCN(C)CC4)ccc3OCC)nc12
GI50 (HOP-92 NSCLC): 23.5 µM | TGI (HOP-92 NSCLC): 97.5 µM | GI50 (SR leukemia): > 100 µM | TGI (SR leukemia): > 100 µM | GI50 (UO-31 renal): > 100 µM | TGI (UO-31 renal): > 100 µM | GI50 (RPMI-8226 leukemia): > 100 µM | TGI (RPMI-8226 leukemia): > 100 µM | GI50 (LOX IMVI melanoma): > 100 µM | TGI (LOX IMVI melanoma): > 100 µM | GI50 (T-47D breast): > 100 µM | TGI (T-47D breast): > 100 µM | GI50 (HCT-116 colon): > 100 µM | TGI (HCT-116 colon): > 100 µM | GI50 (HCC-2998 colon): > 100 µM | TGI (HCC-2998 colon): > 100 µM | GI50 (HL-60(TB) leukemia): > 100 µM | TGI (HL-60(TB) leukemia): > 100 µM | GI50 (KM12 colon): > 100 µM | TGI (KM12 colon): > 100 µM

O=C1c2c(c(=O)[nH]c3ccccc23)[C@H](c2ccccc2)[C@@H]2CCCN12
GI50 (HOP-92 NSCLC): 2.94 µM | TGI (HOP-92 NSCLC): 15.7 µM | GI50 (SR leukemia): 2.61 µM | TGI (SR leukemia): 36.7 µM | GI50 (UO-31 renal): 2.1 µM | TGI (UO-31 renal): 7.05 µM | GI50 (RPMI-8226 leukemia): 4.83 µM | TGI (RPMI-8226 leukemia): 48.4 µM | GI50 (LOX IMVI melanoma): 2.3 µM | TGI (LOX IMVI melanoma): 11.8 µM | GI50 (T-47D breast): 3.46 µM | TGI (T-47D breast): 9.2 µM | GI50 (HCT-116 colon): 2.54 µM | TGI (HCT-116 colon): > 100 µM | GI50 (HCC-2998 colon): 10.9 µM | TGI (HCC-2998 colon): 69.6 µM | GI50 (HL-60(TB) leukemia): 1.98 µM | TGI (HL-60(TB) leukemia): 8.29 µM | GI50 (KM12 colon): 3.08 µM | TGI (KM12 colon): 13.6 µM

COc1ccc2cc(-c3cnc4nonc4n3)ccc2c1
GI50 (HOP-92 NSCLC): 16.1 µM | TGI (HOP-92 NSCLC): > 100 µM | GI50 (SR leukemia): 0.423 µM | TGI (SR leukemia): > 100 µM | GI50 (UO-31 renal): 3.23 µM | TGI (UO-31 renal): > 100 µM | GI50 (RPMI-8226 leukemia): 0.685 µM | TGI (RPMI-8226 leukemia): 17.5 µM | GI50 (LOX IMVI melanoma): 1.88 µM | TGI (LOX IMVI melanoma): > 100 µM | GI50 (T-47D breast): 1.99 µM | TGI (T-47D breast): > 100 µM | GI50 (HCT-116 colon): 2.12 µM | TGI (HCT-116 colon): > 100 µM | GI50 (HCC-2998 colon): 2.32 µM | TGI (HCC-2998 colon): > 100 µM | GI50 (HL-60(TB) leukemia): 0.803 µM | TGI (HL-60(TB) leukemia): 9.03 µM | GI50 (KM12 colon): 2.03 µM | TGI (KM12 colon): > 100 µM

CCOC(=O)C(=Cc1ccc(C#N)cc1)C(=O)OCC
GI50 (HOP-92 NSCLC): 1.63 µM | TGI (HOP-92 NSCLC): 4.26 µM | GI50 (SR leukemia): 1.31 µM | TGI (SR leukemia): > 100 µM | GI50 (UO-31 renal): 1.65 µM | TGI (UO-31 renal): 3.49 µM | GI50 (RPMI-8226 leukemia): 2.65 µM | TGI (RPMI-8226 leukemia): 7.71 µM | GI50 (LOX IMVI melanoma): 1.8 µM | TGI (LOX IMVI melanoma): 3.87 µM | GI50 (T-47D breast): 2.15 µM | TGI (T-47D breast): 7.96 µM | GI50 (HCT-116 colon): 2.15 µM | TGI (HCT-116 colon): 4.22 µM | GI50 (HCC-2998 colon): 1.81 µM | TGI (HCC-2998 colon): 3.43 µM | GI50 (HL-60(TB) leukemia): 1.88 µM | TGI (HL-60(TB) leukemia): 5.48 µM | GI50 (KM12 colon): 2.86 µM | TGI (KM12 colon): 8.8 µM

Reference: PubChem BioAssay (NCI)
